By EC50 is commonly meant the concentration needed to bring the measured effect to its halfway point. One may read the IC50 as the concentration that gives 50% inhibition.

We go through 72 molecules from PubChem BioAssay AID179 (DTP/NCI, 2004).

Several values for one entry are separate records, joined by “and”; a condition that tells them apart may be missing. Identical values can stand only once. Activity calls are given as the source filed them.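 Rule for the calls: active = compounds giving half or more protection of infected cells from virus-caused growth loss, again on retest; inactive = the rest.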

For the assay, the system named is CEM cells HIV-1 protection, formazan growth assay. Kind of assay: NCI AIDS Antiviral Assay. Conditions: for IC50: measured here: growth of uninfected CEM cells. The procedure, abridged: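 Human CEM cells, uninfected and HIV-1-infected, received five drug concentrations, and growth was read by soluble formazan assay. Compounds giving at least 50% protection were retested; reproducible 100% protection defined confirmed active.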

As to `OCC1OC(O)C(N=C/C=C/c2ccccc2)C(O)C1O` (stereo not given), the EC50 was above 200 µM and the IC50 is 22.9 µM. Consider `O=C(Nc1ccccc1)c1cc(S(=O)(=O)Nc2nc3ncccc3[nH]2)c(SSc2cc(Cl)c(C(=O)Nc3ccccc3)cc2S(=O)(=O)Nc2nc3ncccc3[nH]2)cc1Cl`, for which the EC50 is 112 µM and the IC50 was above 200 µM. On the same counts, the results for `COc1cc2oc3cc(OC)c(OC)c(CC=C(C)C)c3c(=O)c2c(O)c1CC=C(C)C` are above 30.9 µM and above 30.9 µM.

For `COc1ccc(C2C(=O)C(Cl)N2Nc2nc(C)cc(=O)[nH]2)cc1OC` (stereo not given), the EC50 is above 186 µM and the IC50 was 20.4 µM. On the same counts, the results for `COc1cc(C2SCC(=O)N2NC(=O)c2ccc(NC(C)=O)cc2)cc(OC)c1OC` (stereo not given) are above 58.9 µM and above 58.9 µM. On the same counts, the results for `CC(=O)/C(=C/N1CCNC1=S)C(=O)Nc1ccc([N+](=O)[O-])cc1` are above 200 µM and 43.7 µM. Regarding `O=C(O)c1onc2ccccc12`, the EC50 was above 1510 µM and the IC50 amounted to 1000 µM.

`O=C1c2c(O)cccc2C(C(=O)CCCCC(=O)C2c3cccc(O)c3C(=O)c3c(O)cccc32)c2cccc(O)c21`: the EC50 is above 6.76 µM and the IC50 was above 6.76 µM. Turning to `Cn1c2ccccc2c2nn3cnnc3nc21`, the EC50 was above 32.4 µM and the IC50 was above 32.4 µM. On to `Cn1ccn2c3nc4ccccc4nc3c(=O)c(C#N)c12`, for which the outcome was inactive. `NCCCN(CCCN(C(=O)Nc1ccccc1)c1ccccc1)C(=O)Nc1ccccc1`: the EC50 is above 200 µM and the half-inhibitory concentration (IC50) was found to be 55 µM. On the same counts, the results for `O=C(NNC(=O)c1csc(NC(=S)NC2CCCCC2)n1)c1ccccc1` are above 200 µM and 14.5 µM. As to `Fc1ccc(CN2COc3c(cc(Cl)c4cccnc34)C2)cc1`, the EC50 is above 200 µM and the IC50 amounted to 0.977 µM. `Nc1nc2c(c(=O)[nH]1)N1CN(c3ccc(C(=O)NC(CCC(=O)O)C(=O)O)cc3)CCC1CN2` (stereo not given): the EC50 was above 347 µM and the IC50 is 60.3 µM. As for `CC(=O)NCCC1CN(C(=O)/C=C\I)c2ccccc21` (stereo not given), the EC50 is above 200 µM and the IC50 was 9.33 µM. On to `Nc1ccc(CCN2CCN(c3cccc(C(F)(F)F)c3)CC2)cc1`, for which the outcome was inactive.

`CC(C)(C)C(=O)O[C@H]1C=C[C@@H](O)[C@@H]2[C@H]1[C@@H]1C=C[C@H]2C1`: the EC50 is above 200 µM and the IC50 was found to be 22.9 µM. On the same counts, the results for `OC1(CN2CCCCC2)N=C(c2ccccc2)c2ccsc2-n2cccc21` (stereo not given) are above 200 µM and 117 µM.

For the molecule `COc1ccc(-n2c(SC(CN3CCOCC3)CN3CCCC3=O)nc3ccccc3c2=O)cc1` (stereo not given), the EC50 was above 200 µM and the IC50 came out at 56.2 µM. In the case of `O=C1C(Cl)=C(c2ccc([N+](=O)[O-])cc2)C(=O)c2c(O)cccc21`, the EC50 was above 79.4 µM and the IC50 stood at 1.12 µM. On the same counts, the results for `CC(=O)C1=CCC2c3[nH]c4ccccc4c3CCN2C1` (stereo not given) are above 70.8 µM and above 70.8 µM. On the same counts, the results for `N=N/C(=C\c1c(O)[nH]c2ccccc12)c1ccccc1` are above 200 µM and 3.31 µM. On the same counts, the results for `O=C1Sc2ccc(Br)cc2C(=O)N2CSCC12` (stereo not given) are above 200 µM and above 200 µM.

Turning to `Cc1cc(-c2ccc(N=Nc3cc(S(=O)(=O)O)c4cccnc4c3O)c(C)c2)ccc1N=Nc1cc(S(=O)(=O)O)c2cccnc2c1O`, the EC50 is 60.3 µM and the IC50 came out at 85.1 µM. With `COC(=O)C(=C\Sc1ccccc1)/C=C/C(=O)OC(C)(C)C`, the result was inactive. For `COc1ccc(OC)c(/C=C(/C#N)c2ccccc2)c1`, the EC50 is above 10.2 µM and the IC50 was above 10.2 µM. As to `N#C/C(=C\c1ccccc1Br)C(=O)c1ccccc1`, the EC50 is above 32.4 µM and the concentration for half-maximal inhibition (IC50) is above 32.4 µM. In the case of `COc1ccc2c(c1)C1Oc3ccccc3CC1CO2` (stereo not given), the EC50 was above 200 µM and the IC50 amounted to 52.5 µM. On the same counts, the results for `O=C1NCC2(CCNCC2)N1` are above 200 µM and above 200 µM. In the case of `O=C1c2ccccc2-c2ccccc2C(=O)C1(Br)Br`, the result was inactive. In the case of `CC(C)(C)OC(=O)NC(Cc1ccccc1)/C(O)=C(\C#N)c1ccc([N+](=O)[O-])cc1` (stereo not given), the EC50 is above 200 µM and the IC50 worked out at 83.2 µM.

For `O=C(C/C(=N/O)C(=O)NC1=C(Cl)C(=O)c2ccccc2C1=O)CC(c1ccccc1)c1c(O)c2ccccc2oc1=O` (stereo not given), the EC50 is above 12.3 µM and the IC50 was found to be 6.61 µM. On the same counts, the results for `Nc1ccccc1Sc1ccccc1` are above 372 µM and 77.6 µM.

For `O=C1c2ccccc2N2OC3C4CCC(C4)C3C12c1ccccc1` (stereo not given), the EC50 was above 16.2 µM and the IC50 turned out to be 11.5 µM.

For the molecule `CN(C)P(=O)(N(C)C)N(C)C`, the EC50 is above 200 µM and the IC50 was above 200 µM. Take `CCOC(=O)/C=C/C1OC(C)(C)OC1/C=C/C(=O)OCC` (stereo not given): the EC50 is above 200 µM and the IC50 came out at 27.5 µM.

Consider `O=C1/C(=C/c2cccc(Br)c2)Cc2ccccc21`, for which the EC50 was above 200 µM and the IC50 was 17 µM. For `O=C1/C(=C/c2ccc(Cl)cc2)CSC/C1=C\c1ccc(Cl)cc1`, the EC50 is above 200 µM and the IC50 came to 2.63 µM. On the same counts, the results for `Cc1noc(NC(=O)Nc2ccccc2C(F)(F)F)c1C` are above 200 µM and above 200 µM. On the same counts, the results for `COc1cccc(C2=NC(C(C)C)CO2)c1OC` (stereo not given) are above 525 µM and 316 µM. In the case of `COc1cc(C2c3cc4c(cc3OC(N3CCCCC3)C2C)OCO4)cc(OC)c1OC` (stereo not given), the EC50 is above 50.1 µM and the 50% inhibitory concentration (IC50) worked out at 0.398 µM. In the case of `Cc1ccc(Cc2n[nH]c(=O)n2-c2ccccc2)cc1`, the result was inactive.

For `CC(C)(C)NC(=O)C12C3C4C1C1C2C3C41C(=O)NC(C)(C)C` (stereo not given), the result was inactive. On the same count and under the same terms, the result for `COc1ccc2c[n+](C)c3c4cc(OC)c(OC)cc4ccc3c2c1` reads “inactive”. `CCOC(=O)c1ccccc1NC(=O)CN(CC)CC`: the EC50 was above 200 µM and the IC50 was above 200 µM.

Regarding `O=C1c2ccccc2C(=O)N1n1c(Cc2ccc([N+](=O)[O-])cc2)n[nH]c1=O`, the EC50 was above 200 µM and the IC50 was above 200 µM. With `CC(=O)N1C(C(=O)NN2CCOCC2)CSC1c1ccccc1` (stereo not given), the EC50 is above 200 µM and the IC50 is above 200 µM.

Consider `COc1ccc(-c2c(C(C)=O)c(-c3ccccc3)n(C3OC(COC(C)=O)C(OC(C)=O)C(OC(C)=O)C3OC(C)=O)c(=S)c2C#N)cc1O` (stereo not given), for which the EC50 is above 200 µM; the IC50 is 24.5 µM and 38.9 µM.

For the molecule `O=C1CC(c2ccco2)C2(C(=O)CCCC2=O)C(c2ccco2)C1` (stereo not given), the EC50 is above 100 µM and the IC50 was above 100 µM. `Cc1ccc(NC(=O)SCCC(=O)O)cc1`: the outcome was inactive. Take `COc1c(C(=O)/C(=N/Nc2cccc(Cl)c2)C(C)=O)c(O)c(OC)c2occc12`: the EC50 was above 200 µM and the IC50 is 85.1 µM.

For `C(=C\c1c2oc(-c3ccccc3)cc(-c3ccccc3)c-2c2ccccc12)/C=C1\c2ccccc2-c2c(-c3ccccc3)cc(-c3ccccc3)[o+]c21`, the EC50 was above 6.76 µM and the IC50 is above 6.76 µM. Consider `NCCCN(CCCN)CCN(CCN(CCCN)CCCN)CCN(CCCN)CCCN`, for which the EC50 is above 200 µM and the IC50 turned out to be 57.5 µM.

As for `CC(C)=CCC/C(C)=C/CC/C(C)=C/Cc1c[nH]c2ccccc12`, the EC50 was above 6.17 µM and the IC50 was above 6.17 µM. Take `CC(=O)N1C(OCc2ccccc2)CCN1c1ccccc1` (stereo not given): the EC50 was above 200 µM and the IC50 was above 200 µM. On to `COC(=O)Nc1nc2ccc(SC)cc2c(=O)[nH]1`, for which the EC50 is above 355 µM and the IC50 turned out to be 12.6 µM. On the same counts, the results for `O=C(CSS(=O)(=O)O)c1ccccc1` are above 200 µM and above 200 µM.

For the molecule `O=S(=O)(O)c1cc(N=Nc2ccc(O)c3ncccc23)ccc1CCc1ccc(N=Nc2ccc(O)c3ncccc23)cc1S(=O)(=O)O`, the concentration giving a half-maximal response (EC50) was 6.31 µM and the IC50 worked out at 42.7 µM. On the same counts, the results for `O=C(NP(=O)(N1CC1)N1CC1)c1cc(I)ccc1I` are above 200 µM and 3.98 µM. Regarding `Clc1ccc(/C=N/N=C(N/N=C/c2ccc(Cl)cc2Cl)N/N=C/c2ccc(Cl)cc2Cl)c(Cl)c1`, the EC50 is above 100 µM and the IC50 was above 100 µM.

Turning to `CC(SC(C)C(=O)N/N=C/c1c[nH]c2ccccc12)C(=O)N/N=C\c1c[nH]c2ccccc12` (stereo not given), the EC50 is above 200 µM and the IC50 turned out to be 120 µM. On the same counts, the results for `Cc1[nH]c2ccccc2c1C(=O)CC1(O)C(=O)Nc2c(Cl)cc(Cl)cc21` (stereo not given) are above 339 µM and 158 µM. Regarding `COC(=O)c1cc(C)ccc1C1CN=NC12Cc1cccc(C)c1C2=O` (stereo not given), the EC50 is above 200 µM and the IC50 came out at 26.9 µM. On the same counts, the results for `CCC1(CC)c2ccccc2C(CC)(CC)[N+]1(C)C` are above 200 µM and 85.1 µM.

Turning to `O=c1c2ccccc2[se]n1-c1ccccn1`, the EC50 was 7.76 µM and the IC50 is 16.2 µM. On to `Nc1ccc2ncc(Nc3ccc(F)cc3)nc2c1`, for which the EC50 is above 269 µM and the IC50 worked out at 135 µM. `COc1ccc(NC(=O)CC(=O)N2N=C(N(CCC#N)c3ccccc3Cl)CC2c2ccccc2)cc1` (stereo not given): the EC50 is above 50.1 µM and the 50% inhibitory concentration (IC50) is above 50.1 µM.

For `CCCCCCCC(=O)NCC(O)CNC(=O)CCCCCCC`, the outcome was inactive. For the molecule `CC1(C)OC(=O)C(C#N)=C1/C=C1\OC(=O)c2ccccc21`, the EC50 was above 178 µM and the IC50 came to 52.5 µM. On the same counts, the results for `CC1(C)OC2C(COCc3ccccc3)=CC(n3ccc(=O)[nH]c3=O)C2O1` (stereo not given) are above 200 µM and above 200 µM. On the same counts, the results for `C=C1C(=O)OC2CC(C)C3CC(OC)OC(OC)C3(C)CC12` (stereo not given) are above 589 µM and 3.72 µM.

On to `COc1cccc(C2c3cc4c(cc3OC(NNc3ccccc3)C2C)OCO4)c1OC` (stereo not given), for which the EC50 is above 200 µM and the IC50 turned out to be 8.13 µM.
